# Assays:
# [1] = test system: Mycobacterium tuberculosis strain EH 4.0 (361.269); assay: Test 4: MIC determination against M. tuberculosis, resazurin fluorescence read-out, different strain; assay type: cell-based; settings: read-out: pIC50 (converted)
# From the text: Test 4 (See Also Test 1 Above; in this Test a Different Strain of Mycobacterium tuberculosis Strain is Employed)
# Appropriate solutions of experimental and reference compounds were made in 96 well plates with 7H9 medium. Samples of Mycobacterium tuberculosis strain EH 4.0 (361.269) were taken from cultures in stationary growth phase. These were first diluted to obtain an optical density of 0.3 at 600 nm wavelength and then diluted 1/100, resulting in an inoculum of approximately 5×10 exp5 colony forming units per well. Plates were incubated at 37° C. in plastic bags to prevent evaporation. After 7 days, resazurin was added to all wells.
# [2] = test system: Mycobacterium tuberculosis strain H37Rv; assay: Test 1: MIC determination against M. tuberculosis, resazurin fluorescence read-out; assay type: cell-based; settings: Test 1, strain H37Rv
# M. tuberculosis H37Rv = settings: strain H37Rv, inside macrophages; cited from earlier work
# MDR tuberculosis = settings: stated in J. Medicinal Chemistry, 2014, 57 (12); cited from earlier work
# [3] = test system: replicating and non-replicating bacteria; settings: stated in J. Medicinal Chemistry, 2014, 57 (12); cited from earlier work
compound,measurement,setting,value
CCc1nc2ncc(Cl)cn2c1C(=O)NCc1ccc2nc(N3CC4(CC(c5ccc(OC(F)(F)F)cc5)C4)C3)ccc2c1 [Compound 1],IC50,[1],39.8 nM
CCc1nc2ccc(Cl)cn2c1C(=O)NCc1ccc2nc(N3CC4(CC(c5ccc(OC(F)(F)F)cc5)C4)C3)ccc2c1 [Compound 2],IC50,[2]; first test,676 nM
same,IC50,[2]; repeated (2nd) test,692 nM
same,IC50,[2]; repeated (3rd) test,589 nM
same,IC50,[1],200 nM
CCc1nc2ccc(Cl)cn2c1C(=O)NCc1ccc2nc(N3CCC(c4ccc(OC(F)(F)F)cc4)CC3)ccc2c1 [Compound 3],IC50,[1],50.1 nM
CCc1nc2ccc(Cl)cn2c1C(=O)NCc1ccc2nc(N3CC4CC(F)CC4C3)ccc2c1 (centres unmarked) [Compound 4],IC50,[1],31.6 nM
Cc1nc2sccn2c1C(=O)NCc1ccc2nc(N3CCC(c4ccc(OC(F)(F)F)cc4)CC3)ccc2c1 [Compound 7],IC50,[1],200 nM
CCc1nc2n(c1C(=O)NCc1ccc3nc(N4CCC(c5ccc(OC(F)(F)F)cc5)CC4)ccc3c1)CCN(C)C2 [Compound 8],IC50,[1],158 nM
Cc1nc2sccn2c1C(=O)NCc1ccc2nc(N3CCN(c4ccc(OC(F)(F)F)cc4)CC3)ccc2c1 [Compound 9],IC50,[1],141 nM
CCc1nc2n(c1C(=O)NCc1ccc3nc(N4CCN(c5ccc(OC(F)(F)F)cc5)CC4)ccc3c1)CCCC2 [Compound 10],IC50,[1],126 nM
Cc1nc2sccn2c1C(=O)NCc1ccc2nc(N(C)CCc3ccc(OC(F)(F)F)cc3)ccc2c1 [Compound 11],IC50,[1],355 nM
CCc1c(C(=O)NCc2ccc3nc(N4CC5(CC(c6ccccc6)C5)C4)ccc3c2)c2cc(Cl)cnc2n1C [Compound 12],IC50,[1],> 12600 nM
CCc1c(C(=O)NCc2ccc3nc(N4CC(c5ccccc5)C4)ccc3c2)c2cc(Cl)cnc2n1C [Compound 13],IC50,[1],> 12600 nM
CCc1nc2ccc(Cl)cn2c1C(=O)NCc1ccc2nc(N(C)Cc3ccc(OC(F)(F)F)cc3)cnc2c1 [Compound 15],IC50,[1],631 nM
CCc1nc2ccc(Cl)cn2c1C(=O)NCc1ccc2nc(N(C)Cc3ccc(OC(F)(F)F)cc3)ccc2c1 [Compound 17],IC50,[1],79.4 nM
CCc1nc2ccc(Cl)cn2c1C(=O)NCc1ccc2cc(N(C)Cc3ccc(OC(F)(F)F)cc3)cnc2c1 [Compound 18],IC50,[1],1000 nM
Cc1nc2sccn2c1C(=O)NCc1ccc2nc(N(C)Cc3ccc(OC(F)(F)F)cc3)ccc2c1 [Compound 19],IC50,[1],282 nM
CCc1nc2ccc(Cl)cn2c1C(=O)NCc1ccc2ncc(N(C)Cc3ccc(OC(F)(F)F)cc3)cc2c1 [Compound 20],IC50,[1],794 nM
CCc1c(C(=O)NCc2ccc3nc(N4CCC(c5ccc(OC(F)(F)F)cc5)CC4)ccc3c2)c2cc(Cl)ccc2n1C [Compound 21],IC50,[1],> 12600 nM
CCc1c(C(=O)NCc2ccc3nc(N4CCC(c5ccc(OC(F)(F)F)cc5)CC4)ccc3c2)c2cc(Cl)cnc2n1C [Compound 22],IC50,[1],> 12600 nM
O=C(NCc1ccc2nc(N3CCC(c4ccc(OC(F)(F)F)cc4)CC3)ccc2c1)c1cc2c([nH]1)CCCC2 [Compound 23],IC50,[1],> 12600 nM
CCc1nc2ccc(Cl)cn2c1C(=O)NCc1ccc2nc(N3CCC(F)(F)CC3)ccc2c1 [Compound 24],IC50,[1],6.31 nM
CCc1nc2ccc(Cl)cn2c1C(=O)NCc1ccc2nc(N3CC4(CC(F)C4)C3)ccc2c1 [Compound 25],IC50,[1],178 nM
Cc1nn2ccccc2c1C(=O)NCc1ccc2nc(N3CCC(c4ccc(OC(F)(F)F)cc4)CC3)ccc2c1 [Compound 26],IC50,[1],398 nM
Cc1nn2ccccc2c1C(=O)NCc1ccc2nc(N3CCN(c4ccc(OC(F)(F)F)cc4)CC3)ccc2c1 [Compound 27],IC50,[1],794 nM
CCc1nc2ccc(Cl)cn2c1C(=O)NCc1ccc(N2CCC(c3ccc(OC(F)(F)F)cc3)CC2)cc1 [Compound Q203],MIC50,M. tuberculosis H37Rv,0.28 nM
same,activity against MDR tuberculosis,MDR tuberculosis,activity against MDR tuberculosis
same,activity against replicating and non-replicating bacteria,[3],highly active
